{
  "source": "paper PMC5034696",
  "about": "(Drug Metabolism and Disposition, 2016)",
  "key": {"[1]": {"test_system": "human liver microsomes", "type": "in vitro ADME", "details": "HLM, p < 0.05; for S,S-OH-bupropion formation higher than control: 1 μM S-bupropion"}, "[2]": {"test_system": "human liver microsomes", "type": "in vitro ADME", "details": "HLM"}, "[3]": {"test": "Chiral inversion"}, "[4]": {"test_system": "CYP2C19", "details": "vs extensive metabolizers; ref Zhu et al., 2014; cited from earlier work"}, "[5]": {"details": "in vivo, humans; ref Turpeinen et al., 2005; cited from earlier work"}},
  "data": [
    {"smiles": "CCC1(c2ccccc2)NC(=O)N(Cc2ccccc2)C1=O", "note": "(single isomer, unassigned; (+)) [N-benzylnirvanol, (+)-N-3-benzylnirvanol]", "values": [
      {"measurement": "R,R-OH-bupropion formation higher than control", "setting": "[1]; 1 μM R-bupropion", "value": 11, "unit": "%"},
      {"measurement": "S,S-OH-bupropion formation higher than control", "setting": "[1]", "value": 20, "unit": "%"},
      {"measurement": "inhibition of 4′-OH-bupropion formation from R-bupropion", "setting": "[2]; 1 µM R-bupropion", "value": 84, "unit": "%"},
      {"measurement": "inhibition of 4′-OH-bupropion formation from S-bupropion", "setting": "[2]; 1 µM S-bupropion", "value": 82, "unit": "%"}
    ]},
    {"smiles": "CC(NC(C)(C)C)C(=O)c1cccc(Cl)c1", "note": "(stereo not shown) [bupropion]", "values": [
      {"measurement": "estimated in vivo isomerization CL", "setting": "[3]; scaled to blood volume (5 l)", "value": 2.7, "unit": "L/h"},
      {"measurement": "estimated in vivo isomerization CL", "setting": "[3]; scaled to total body water (42 l)", "value": 22.7, "unit": "L/h"},
      {"measurement": "increase in bupropion AUC in CYP2C19 intermediate metabolizers", "setting": "[4]", "value": 13, "unit": "%"}
    ]},
    {"smiles": "COC(=O)[C@H](c1ccccc1Cl)N1CCc2sccc2C1", "note": "[clopidogrel]", "values": [
      {"measurement": "increase in bupropion AUC", "setting": "[5]", "value": 36, "unit": "%"}
    ]},
    {"smiles": "CC(C)(O)c1ccccc1CC[C@@H](SCC1(CC(=O)O)CC1)c1cccc(/C=C/c2ccc3ccc(Cl)cc3n2)c1", "note": "[montelukast]", "values": [
      {"measurement": "S,S-OH-bupropion formation higher than control", "setting": "[1]", "value": 15, "unit": "%"}
    ]},
    {"smiles": "Clc1ccccc1CN1CCc2sccc2C1", "note": "[ticlopidine]", "values": [
      {"measurement": "increase in bupropion AUC", "setting": "[5]", "value": 61, "unit": "%"}
    ]}
  ]
}
